In this assay the test system is BDF1 mice, P388 leukemia ip, median survival T/C. Description: NCI In Vivo Anticancer Drug Screen. Data for tumor model P388 Leukemia (intraperitoneal) in B6D2F1 (BDF1) mice. Conditions: endpoint: median survival time, higher = longer survival. In outline:
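Transplantable tumour in mice; compound vs vehicle dosing; survival scored; ratio of treated to control reported.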

The mark [1] stands for this setting: dose: 50.0 mg/kg/injection, schedule: Q01DX005 (ip), vehicle: saline.
[2] abbreviates: dose: 50.0 mg/kg/injection, schedule: Q01DX009 (ip), vehicle: saline with Tween-80.
Setting [3] is: dose: 100.0 mg/kg/injection, schedule: Q01DX009 (ip), vehicle: saline with Tween-80.
Setting [4] is: dose: 200.0 mg/kg/injection, schedule: Q01DX009 (ip), vehicle: saline with Tween-80.
[5] abbreviates: dose: 25.0 mg/kg/injection, schedule: Q04DX003 (ip), vehicle: saline.
The mark [6] stands for this setting: dose: 50.0 mg/kg/injection, schedule: Q04DX003 (ip), vehicle: saline.
[7] abbreviates: dose: 3.12 mg/kg/injection, schedule: Q01DX009 (ip), vehicle: saline.
[8] abbreviates: dose: 6.25 mg/kg/injection, schedule: Q01DX009 (ip), vehicle: saline.
[9] abbreviates: dose: 100.0 mg/kg/injection, schedule: Q04DX003 (ip), vehicle: Klucel (hydroxypropylcellulose) (HPC).
Setting [10] is: dose: 200.0 mg/kg/injection, schedule: Q04DX003 (ip), vehicle: Klucel (hydroxypropylcellulose) (HPC).
Where [11] appears, read: dose: 400.0 mg/kg/injection, schedule: Q04DX003 (ip), vehicle: Klucel (hydroxypropylcellulose) (HPC).

Several values for one entry are separate records, joined by “and”; a condition that tells them apart may be missing. Identical values can stand only once. Inconclusive results and toxic doses are left out.

The values below come from PubChem BioAssay AID328 (DTP/NCI, 2004).

As to `CCCCCC(CN(C)C)C(=O)/C=C/c1ccc(Cl)c(Cl)c1` (centres undefined), the T/C (dose: 2.75 mg/kg/injection, schedule: Q01DX009 (ip), vehicle: saline) is 110 % of control; the T/C (dose: 4.12 mg/kg/injection, schedule: Q01DX009 (ip), vehicle: saline) was 105 % of control; the T/C (dose: 50.0 mg/kg/injection, schedule: Q01DX001 (ip), vehicle: saline) is 100 % of control.
Turning to `CN(C)CCCNC(=O)c1ccc2c(c1O)C(=O)c1ccccc1C2=O`, the T/C under setting [1] is 118 % of control.
`CCCSCCSCCC`: the T/C reads like this: (dose: 25.0 mg/kg/injection, schedule: Q04DX003 (ip), vehicle: saline with Tween-80) 100 % of control; (dose: 50.0 mg/kg/injection, schedule: Q04DX003 (ip), vehicle: saline with Tween-80) 109 % of control; (dose: 100.0 mg/kg/injection, schedule: Q04DX003 (ip), vehicle: saline with Tween-80) 113 % of control.
Take `CSc1ccc(NC(=O)NN(c2ccccc2)C2CCS(=O)(=O)C2)cc1` (centres undefined): the T/C is 100 % of control under setting [2], 102 % of control under setting [3] and 101 % of control under setting [4].
With `COc1cc(OC)cc(C(=O)N2CC2)c1`, the T/C runs as follows: (dose: 6.25 mg/kg/injection, schedule: Q04DX003 (ip), vehicle: water) 105 % of control; (dose: 12.5 mg/kg/injection, schedule: Q04DX003 (ip), vehicle: water) 98 % of control; (dose: 25.0 mg/kg/injection, schedule: Q04DX003 (ip), vehicle: water) 105 % of control; (dose: 50.0 mg/kg/injection, schedule: Q04DX003 (ip), vehicle: water) 96 % of control; (dose: 100.0 mg/kg/injection, schedule: Q04DX003 (ip), vehicle: water) 107 % of control; (dose: 200.0 mg/kg/injection, schedule: Q01DX009 (ip), vehicle: water) 100 % of control. Further, the T/C (dose: 200.0 mg/kg/injection, schedule: Q04DX003 (ip), vehicle: water) is 100 % of control; the T/C (dose: 300.0 mg/kg/injection, schedule: Q01DX009 (ip), vehicle: water) is 105 % of control; the T/C (dose: 400.0 mg/kg/injection, schedule: Q01DX009 (ip), vehicle: water) is 91 % of control.
With `O=C1OC(=O)C2C3C=CC(C4C=CC43)C12` (centres undefined), the T/C reads like this: (dose: 12.5 mg/kg/injection, schedule: Q04DX003 (ip), vehicle: saline) 101 % of control; (dose: 25.0 mg/kg/injection, schedule: Q01DX009 (ip), vehicle: saline) 97 % of control; under setting [5], 104 % of control; (dose: 50.0 mg/kg/injection, schedule: Q01DX009 (ip), vehicle: saline) 97 % of control; under setting [6], 111 % of control and 124 % of control; (dose: 100.0 mg/kg/injection, schedule: Q04DX003 (ip), vehicle: saline) 92 % of control and 106 % of control. In addition, the T/C is, setting by setting: (dose: 200.0 mg/kg/injection, schedule: Q01DX009 (ip), vehicle: saline) 86 % of control; (dose: 200.0 mg/kg/injection, schedule: Q04DX003 (ip), vehicle: saline) 111 % of control and 119 % of control; (dose: 400.0 mg/kg/injection, schedule: Q01DX009 (ip), vehicle: saline) 100 % of control; (dose: 400.0 mg/kg/injection, schedule: Q04DX003 (ip), vehicle: saline) 109 % of control.
Turning to `CC1CN1CC(O)C(O)CN1CC1C` (centres undefined), the T/C runs as follows: (dose: 0.09 mg/kg/injection, schedule: Q04DX003 (ip), vehicle: saline) 100 % of control; (dose: 0.19 mg/kg/injection, schedule: Q04DX003 (ip), vehicle: saline) 103 % of control; (dose: 0.78 mg/kg/injection, schedule: Q01DX009 (ip), vehicle: saline) 165 % of control; (dose: 0.78 mg/kg/injection, schedule: Q04DX003 (ip), vehicle: saline) 200 % of control; (dose: 0.8 mg/kg/injection, schedule: Q01DX009 (ip), vehicle: saline with Tween-80) 225 % of control; (dose: 1.2 mg/kg/injection, schedule: Q01DX009 (ip), vehicle: saline with Tween-80) 241 % of control. The T/C (dose: 1.3 mg/kg/injection, schedule: Q04DX003 (ip), vehicle: saline) is 170 % of control; the T/C (dose: 1.56 mg/kg/injection, schedule: Q01DX009 (ip), vehicle: saline) is 203 % of control; the T/C (dose: 1.56 mg/kg/injection, schedule: Q04DX003 (ip), vehicle: saline) was 229 % of control and 181 % of control; the T/C (dose: 1.8 mg/kg/injection, schedule: Q01DX009 (ip), vehicle: saline with Tween-80) is 250 % of control; the T/C (dose: 2.0 mg/kg/injection, schedule: Q01DX009 (ip), vehicle: saline) was 250 % of control; the T/C (dose: 3.0 mg/kg/injection, schedule: Q01DX009 (ip), vehicle: saline) is 250 % of control. The T/C runs as follows: under setting [7], 203 % of control; (dose: 3.12 mg/kg/injection, schedule: Q04DX003 (ip), vehicle: saline) 222 % of control; (dose: 3.3 mg/kg/injection, schedule: Q04DX003 (ip), vehicle: saline) 236 % of control; (dose: 4.5 mg/kg/injection, schedule: Q04DX003 (ip), vehicle: saline) 200 % of control; (dose: 5.0 mg/kg/injection, schedule: Q04DX003 (ip), vehicle: saline) 295 % of control; under setting [8], 95 % of control. Moreover, the T/C by setting is: (dose: 6.25 mg/kg/injection, schedule: Q04DX003 (ip), vehicle: saline) 231 % of control; (dose: 6.6 mg/kg/injection, schedule: Q04DX003 (ip), vehicle: saline) 259 % of control; (dose: 10.0 mg/kg/injection, schedule: Q04DX003 (ip), vehicle: saline) 86 % of control.
Turning to `Oc1c(CN2CCOCC2)cc(CN2CCOCC2)cc1CN1CCOCC1`, the T/C was 91 % of control under setting [3]; 86 % of control under setting [4]; 100 % of control (dose: 400.0 mg/kg/injection, schedule: Q01DX009 (ip), vehicle: saline with Tween-80).
For the compound `CC1(C)CC(=O)C2OC2(C)C1` (centres undefined), the T/C is 100 % of control (dose: 100.0 mg/kg/injection, schedule: Q01DX009 (ip), vehicle: Klucel (hydroxypropylcellulose) (HPC)); 104 % of control under setting [9]; 90 % of control (dose: 200.0 mg/kg/injection, schedule: Q01DX009 (ip), vehicle: Klucel (hydroxypropylcellulose) (HPC)); 95 % of control under setting [10]; 109 % of control (dose: 400.0 mg/kg/injection, schedule: Q01DX009 (ip), vehicle: Klucel (hydroxypropylcellulose) (HPC)); 108 % of control under setting [11].
Consider `CCOC(=O)C[n+]1c(C)sc2ccccc21`, for which the T/C is 99 % of control under setting [1]; 92 % of control (dose: 100.0 mg/kg/injection, schedule: Q01DX005 (ip), vehicle: saline); 101 % of control (dose: 200.0 mg/kg/injection, schedule: Q01DX005 (ip), vehicle: saline).
As to `COc1ccc(S(=O)(=O)Nc2c([N+](=O)[O-])cc([N+](=O)[O-])c3ccccc23)cc1`, the T/C was 102 % of control (dose: 25.0 mg/kg/injection, schedule: Q01DX009 (ip), vehicle: saline with Tween-80) and 100 % of control under setting [2].
As for `CN1CC(C(=O)N2CCCCC2)C=C2c3cccc4[nH]cc(c34)CC21` (centres undefined), the T/C is 95 % of control under setting [7]; 113 % of control under setting [8]; 104 % of control (dose: 12.5 mg/kg/injection, schedule: Q01DX009 (ip), vehicle: saline); 116 % of control under setting [5]; 87 % of control under setting [6].
Take `C[C@H]1[C@H](C)CC[C@]2(CO)CC[C@]3(C)C(=CC[C@@H]4[C@@]5(C)CC[C@@H](O)C(C)(C)[C@@H]5CC[C@]43C)[C@H]12`: the T/C was 120 % of control (dose: 50.0 mg/kg/injection, schedule: Q01DX010 (ip), vehicle: acetone) and 110 % of control (dose: 400.0 mg/kg/injection, schedule: Q01DX010 (ip), vehicle: acetone).
`NC(=O)C1CCCC12NC(=O)NC2=O` (centres undefined): the T/C is 109 % of control under setting [9], 100 % of control under setting [10] and 95 % of control under setting [11].
